Data: PubChem BioAssay (NCI)
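The compound was tested at five concentrations on cells cultured in 96-well plates, with a 48-hour exposure period. GI50 is the concentration that inhibits growth by half. TGI denotes the concentration required for complete inhibition of growth.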

Key:
Assay in all cases: inhibition of tumour cell growth, NCI panel, 48 h
CAKI-1 renal = tested on: CAKI-1 renal
OVCAR-3 ovarian = tested on: OVCAR-3 ovarian
HCC-2998 colon = tested on: HCC-2998 colon
IGROV1 ovarian = tested on: IGROV1 ovarian
ACHN renal = tested on: ACHN renal
COLO 205 colon = tested on: COLO 205 colon
MDA-MB-231 breast = tested on: MDA-MB-231 breast
K-562 leukemia = tested on: K-562 leukemia
HCT-15 colon = tested on: HCT-15 colon
A498 renal = tested on: A498 renal
MALME-3M melanoma = tested on: MALME-3M melanoma
OVCAR-8 ovarian = tested on: OVCAR-8 ovarian
CCRF-CEM leukemia = tested on: CCRF-CEM leukemia
HS 578T breast = tested on: HS 578T breast
EKVX NSCLC = tested on: EKVX NSCLC
A549 NSCLC = tested on: A549 NSCLC
HOP-62 NSCLC = tested on: HOP-62 NSCLC
TK-10 renal = tested on: TK-10 renal
HT29 colon = tested on: HT29 colon
SK-OV-3 ovarian = tested on: SK-OV-3 ovarian
U251 CNS = tested on: U251 CNS
MCF7 breast = tested on: MCF7 breast
NCI-H226 lung = tested on: NCI-H226 lung
NCI-H522 lung = tested on: NCI-H522 lung
SF-295 CNS = tested on: SF-295 CNS
SF-268 CNS = tested on: SF-268 CNS
SK-MEL-5 melanoma = tested on: SK-MEL-5 melanoma
HL-60(TB) leukemia = tested on: HL-60(TB) leukemia
LOX IMVI melanoma = tested on: LOX IMVI melanoma
PC-3 prostate = tested on: PC-3 prostate
UACC-257 melanoma = tested on: UACC-257 melanoma
NCI-H460 lung = tested on: NCI-H460 lung
MDA-MB-435 = tested on: MDA-MB-435
SN12C renal = tested on: SN12C renal
KM12 colon = tested on: KM12 colon
OVCAR-4 ovarian = tested on: OVCAR-4 ovarian
DU-145 prostate = tested on: DU-145 prostate
RPMI-8226 leukemia = tested on: RPMI-8226 leukemia
HCT-116 colon = tested on: HCT-116 colon
SR leukemia = tested on: SR leukemia
SF-539 CNS = tested on: SF-539 CNS
SK-MEL-28 melanoma = tested on: SK-MEL-28 melanoma
HOP-92 NSCLC = tested on: HOP-92 NSCLC
UACC-62 melanoma = tested on: UACC-62 melanoma
SNB-75 CNS = tested on: SNB-75 CNS
NCI/ADR-RES ovarian = tested on: NCI/ADR-RES ovarian
NCI-H23 lung = tested on: NCI-H23 lung
786-0 renal = tested on: 786-0 renal
T-47D breast = tested on: T-47D breast
M14 melanoma = tested on: M14 melanoma
SK-MEL-2 melanoma = tested on: SK-MEL-2 melanoma
RXF 393 renal = tested on: RXF 393 renal
OVCAR-5 ovarian = tested on: OVCAR-5 ovarian
UO-31 renal = tested on: UO-31 renal
BT-549 breast = tested on: BT-549 breast
SNB-19 CNS = tested on: SNB-19 CNS
SW-620 colon = tested on: SW-620 colon

O=C1C=C[C@]2(C[C@@H](c3cccc(C(F)(F)F)c3)O[C@@H](c3cccc(C(F)(F)F)c3)O2)O1
GI50 (CAKI-1 renal): 2950 nM | TGI (CAKI-1 renal): 12.4 µM | GI50 (OVCAR-3 ovarian): 1600 nM | TGI (OVCAR-3 ovarian): 3.71 µM | GI50 (HCC-2998 colon): 1630 nM | TGI (HCC-2998 colon): 3.18 µM | GI50 (IGROV1 ovarian): 1660 nM | TGI (IGROV1 ovarian): 4.41 µM | GI50 (ACHN renal): 1550 nM | TGI (ACHN renal): 3.1 µM | GI50 (COLO 205 colon): 1880 nM | TGI (COLO 205 colon): 5.51 µM | GI50 (MDA-MB-231 breast): 2150 nM | TGI (MDA-MB-231 breast): 6.29 µM | GI50 (K-562 leukemia): 2680 nM | TGI (K-562 leukemia): > 100 µM | GI50 (HCT-15 colon): 1660 nM | TGI (HCT-15 colon): 4.13 µM | GI50 (A498 renal): 1810 nM | TGI (A498 renal): 9.21 µM | GI50 (MALME-3M melanoma): 2270 nM | TGI (MALME-3M melanoma): 7.06 µM | GI50 (OVCAR-8 ovarian): 3.03 µM | TGI (OVCAR-8 ovarian): 13.4 µM | GI50 (CCRF-CEM leukemia): 2480 nM | TGI (CCRF-CEM leukemia): 13.1 µM | GI50 (HS 578T breast): 12.2 µM | TGI (HS 578T breast): 60.7 µM | GI50 (EKVX NSCLC): 12.9 µM | TGI (EKVX NSCLC): 27.7 µM | GI50 (A549 NSCLC): 5.57 µM | TGI (A549 NSCLC): 20.4 µM | GI50 (HOP-62 NSCLC): 5.08 µM | TGI (HOP-62 NSCLC): 18.2 µM | GI50 (TK-10 renal): 1660 nM | TGI (TK-10 renal): 3.22 µM | GI50 (HT29 colon): 2120 nM | TGI (HT29 colon): 5.52 µM | GI50 (SK-OV-3 ovarian): 14.4 µM | TGI (SK-OV-3 ovarian): 28.1 µM | GI50 (U251 CNS): 2580 nM | TGI (U251 CNS): 12.9 µM | GI50 (MCF7 breast): 389 nM | TGI (MCF7 breast): 3.68 µM | GI50 (NCI-H226 lung): 2180 nM | TGI (NCI-H226 lung): 10.5 µM | GI50 (NCI-H522 lung): 1590 nM | TGI (NCI-H522 lung): 3.99 µM | GI50 (SF-295 CNS): 4.18 µM | TGI (SF-295 CNS): 17.2 µM | GI50 (SF-268 CNS): 1500 nM | TGI (SF-268 CNS): 4.14 µM | GI50 (SK-MEL-5 melanoma): 1800 nM | TGI (SK-MEL-5 melanoma): 3.72 µM | GI50 (HL-60(TB) leukemia): 1880 nM | TGI (HL-60(TB) leukemia): 8.34 µM | GI50 (LOX IMVI melanoma): 433 nM | TGI (LOX IMVI melanoma): 1710 nM | GI50 (PC-3 prostate): 2400 nM | TGI (PC-3 prostate): 8.27 µM | GI50 (UACC-257 melanoma): 2290 nM | TGI (UACC-257 melanoma): 5.77 µM | GI50 (NCI-H460 lung): 600 nM | TGI (NCI-H460 lung): 2580 nM | GI50 (MDA-MB-435): 1600 nM | TGI (MDA-MB-435): 3.39 µM | GI50 (SN12C renal): 2910 nM | TGI (SN12C renal): 12.4 µM | GI50 (KM12 colon): 3.09 µM | TGI (KM12 colon): 13.9 µM | GI50 (OVCAR-4 ovarian): 5.24 µM | TGI (OVCAR-4 ovarian): 19.3 µM | GI50 (DU-145 prostate): 5.72 µM | TGI (DU-145 prostate): 18.4 µM | GI50 (RPMI-8226 leukemia): 1120 nM | TGI (RPMI-8226 leukemia): 5.97 µM | GI50 (HCT-116 colon): 1080 nM | TGI (HCT-116 colon): 2640 nM | GI50 (SR leukemia): 674 nM | TGI (SR leukemia): 5.4 µM | GI50 (SF-539 CNS): 1430 nM | TGI (SF-539 CNS): 3.31 µM | GI50 (SK-MEL-28 melanoma): 2340 nM | TGI (SK-MEL-28 melanoma): 6.44 µM | GI50 (HOP-92 NSCLC): 1970 nM | TGI (HOP-92 NSCLC): 6.6 µM | GI50 (UACC-62 melanoma): 1770 nM | TGI (UACC-62 melanoma): 4.63 µM | GI50 (SNB-75 CNS): 2790 nM | TGI (SNB-75 CNS): 16.1 µM | GI50 (NCI/ADR-RES ovarian): 1900 nM | TGI (NCI/ADR-RES ovarian): 6.62 µM | GI50 (NCI-H23 lung): 4.03 µM | TGI (NCI-H23 lung): 18.7 µM | GI50 (786-0 renal): 1350 nM | TGI (786-0 renal): 2950 nM | GI50 (T-47D breast): 1100 nM | TGI (T-47D breast): 3.96 µM | GI50 (M14 melanoma): 4.11 µM | TGI (M14 melanoma): 23.7 µM | GI50 (SK-MEL-2 melanoma): 2210 nM | TGI (SK-MEL-2 melanoma): 6.54 µM | GI50 (RXF 393 renal): 1670 nM | TGI (RXF 393 renal): 3.91 µM | GI50 (OVCAR-5 ovarian): 7.76 µM | TGI (OVCAR-5 ovarian): 26.1 µM | GI50 (UO-31 renal): 1840 nM | TGI (UO-31 renal): 5.08 µM | GI50 (BT-549 breast): 1920 nM | TGI (BT-549 breast): 4.82 µM | GI50 (SNB-19 CNS): 3.13 µM | TGI (SNB-19 CNS): 16.1 µM | GI50 (SW-620 colon): 1760 nM | TGI (SW-620 colon): 5.14 µM
